According to publication PMC5201116, “Bioactive Flavonoids and Catechols as Hif1 and Nrf2 Protein Stabilizers - Implications for Parkinson’s Disease” (Aging and Disease, 2016):

Key:
[1] = system: HIF1 ODD-luc reporter (SH-SY5Y cell line); assay: HIF1 ODD-luc reporter assay; assay type: cell-based; details: for ODD-luc fold activation / fold induction at 10 µM: at 10 µM, 3 h incubation; for fold induction at 10 µM: 3 h, read-out: ODD-luc fold activation
Experimental: (§1) SH-SY5Y cell lines stably expressing HIF1 ODD-luc or Neh2-luc reporters were grown in the DMEM/F12 supplemented with GlutaMAX (Thermo Fisher Scientific) containing 10% FBS, 100 U/ml penicillin, and 100 μg/ml streptomycin and plated into 384-well white flat-bottom plates at 7,000 cell/well in 30 µl serum and incubated overnight at 37°C, 5% CO2. The next day compounds were added to a final concentration of 10 µM and the plates were incubated for 3 hours at 37°C. Reporter activation after 3 h incubation with the studied compound was compared to that for ciclopirox (HIF1 ODD-luc reporter) or TBHQ (Neh2-luc reporter), taken as 100%. Luciferase reporter activity was measured with a SteadyGlo reagent from Promega providing stable reading for 1 h.
(§2) Cells were plated at the density of 25,000 cell per well using a WellMate multichannel dispenser from Matrix (Thermo Fisher Scientific, Waltham, MA) and grown overnight on DMEM/F12+GlutaMAX (100 µl per well). Then an inhibitor was added, and the plates were incubated for a fixed time interval; the medium was removed, cells lysed, and luciferase activity was measured on a SpectraMax M5e platereader (Molecular Devices, Sunnyvale, CA) with BrightGlo™ reagent (Promega, Madison, WI). The reporter activation was normalized to the background luminescence. The effect of 0.5 mM N-acetylcysteine (NAC) was studied by simultaneous addition of 5 µL of 10 mM stock of NAC in water and 2 µL of 50x stock solutions of a flavonoid in DMSO.

[2] = system: HRE-luciferase reporter (HT22 hippocampal cell line); assay: HRE-luc reporter assay; assay type: cell-based; details: at 10 µM; for fold induction at 10 µM: Mus musculus, HT-22, 3 h, read-out: HRE-luc fold activation
Description: A promoter-reporter construct that contained 68 bp of a known hypoxia and HIF-1 regulated gene, enolase, containing a wild type hypoxia response element (HRE, 5’-RCTGT-3’), is a widely used approach for screening for HIF activators of different mechanism of action. A cell-based assay with HRE-luciferase reporter system is based on transfected immortalized hippocampal cell line (HT22) and allows screening for a broad spectrum of compounds that include: activators of HIF transcription; activators of HIF binding to HRE; and effectors of HIF protein stability (PHD inhibitors, pVHL & proteasome inhibitors). The assay was performed the same way as for HIF ODD-luc reporter except the cells were plated at the density of 10,000 cell per well and incubated overnight.

[3] = system: Neh2-luc reporter (SH-SY5Y cell line); assay: Neh2-luc reporter assay; assay type: cell-based; details: for EC50: Neh2-luc; for Neh2-luc fold activation / fold induction at 10 µM: at 10 µM, 3 h incubation; for fold induction at 10 µM: read-out: Neh2-luc fold activation
Experimental: as §1, §2

[4] = Iron binding constant, calcein displacement assay; assay type: physicochemical; details: calcein displacement
Description: Calcein displacement assay in the presence of varied concentrations of flavonoids and catechols has been used. Calcein release from its complex with iron was monitored by fluorescence as described in [26].

[5] = system: primary neuronal cultures treated with 5 mM HCA; assay: Glutathione depletion (HCA) model, MTT viability; assay type: cell-based, rat; details: for concentration at which neuroprotection begins: glutathione depletion model, Fig. 5; for EC50: Rattus norvegicus, results not shown, read-out: EC50 of protection in glutathione depletion model
Experimental: Primary neuronal cultures were prepared from the forebrains of Sprague-Dawley rat embryos (E17) and plated on 96 well plates at a 10^6 cells/ml density. After 24 hours, cells were rinsed with warm PBS and then placed in minimum Essential Medium (MEM; Life Technologies, Grand Island, NY) containing 5 mM HCA in the presence of a compound of interest at varied concentrations. Cells were incubated for 24 h or longer to see 90% cell death in HCA treated controls. Viability was assessed by the MTT (4,5-dimethylthiazol-2-yl)-2,5-diphenyltetrazolium bromide) assay.

[6] = Non-enzymatic ferricyanide reduction rate constant; assay type: physicochemical; details: 1 mM ferricyanide, pH 7.0
Experimental: The rate of ferricyanide reduction by individual flavonoids was measured spectrophotometrically at 420 nm with the fixed concentration of ferricyanide (1 mM) and varied concentrations of a flavonoid in Potassium-phosphate buffer, pH 7.0. The rate constant for direct ferricyanide reduction was calculated from the slope of the dependence reaction rate vs flavonoid concentration and used as a measure of flavonoid non-specific reducing power.

[7] = set-up: method as in PMID 17112238; details: cited from earlier work
HIF PHD2 = details: competitive with α-KG; read-out: PHD2 Ki; cited from earlier work
[8] = target: T1, Rabbit Reticulocyte 15-LOX-1 (Oryctolagus cuniculus, UniProt P12530); assay: Rabbit LOX 12/15 (rabbit reticulocyte 15-LOX-1) activity; assay type: biochemical; details: compounds at 25 µM, Fig. 4A
T1 sequence (P12530 1-663): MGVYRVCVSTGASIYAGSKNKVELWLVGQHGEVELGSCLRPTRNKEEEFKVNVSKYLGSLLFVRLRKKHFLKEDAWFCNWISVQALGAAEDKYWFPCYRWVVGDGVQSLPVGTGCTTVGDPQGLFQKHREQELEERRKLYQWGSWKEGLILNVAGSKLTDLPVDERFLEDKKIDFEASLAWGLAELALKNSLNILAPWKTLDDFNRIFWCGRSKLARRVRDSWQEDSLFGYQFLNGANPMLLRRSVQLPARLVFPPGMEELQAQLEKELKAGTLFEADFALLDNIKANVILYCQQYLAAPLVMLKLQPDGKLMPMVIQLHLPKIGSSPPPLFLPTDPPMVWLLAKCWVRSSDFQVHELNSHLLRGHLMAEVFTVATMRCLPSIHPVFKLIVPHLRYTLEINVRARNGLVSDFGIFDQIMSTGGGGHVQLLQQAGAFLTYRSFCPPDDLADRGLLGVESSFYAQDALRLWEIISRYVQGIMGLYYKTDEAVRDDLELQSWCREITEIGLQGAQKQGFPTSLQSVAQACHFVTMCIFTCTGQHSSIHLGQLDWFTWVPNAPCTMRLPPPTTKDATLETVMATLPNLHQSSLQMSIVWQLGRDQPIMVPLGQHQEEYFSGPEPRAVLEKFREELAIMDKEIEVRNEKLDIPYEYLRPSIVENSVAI
Experimental: The activity of the purified enzyme was measured in the end-point in vitro assay of arachidonic acid oxidation following the formation of fluorescent diphenyl-1-pyrenylphosphine oxide. DMSO was used as a control.

[9] = system: VEGF mRNA in immature primary cortical neurons; assay: VEGF mRNA induction, real-time RT-PCR; assay type: cell-based; details: overnight pretreatment, Fig. 4B
Experimental: For VEGF gene expression studies, total RNA was isolated from immature primary cortical neurons, pretreated overnight with the indicated concentration of a bioactive compound, using the NucleoSpin RNA II kit (Macherey-Nagel, Bethlehem, PA) according to manufacturer’s protocol. Real-time PCR was performed in triplicate as a duplex reaction using a VEGF (Mm01281449_m1) gene expression assay with a 6-carboxyfluorescein-labeled probe, and a β actin gene expression assay with a VIC-labeled probe (Applied Biosystems, Foster City, CA), so that gene amplification could be normalized to β actin. These experiments were performed using a 7500 Real-time PCR System (Applied Biosystems) using standard PCR protocol and amplification conditions.

O=c1c(-c2ccc(O)c(O)c2)coc2cc(O)ccc12 [compound 27, 3’-Hydroxy-daidzein]
ODD-luc fold activation [1]: 2.5±0.3 fold | HRE-luc fold activation [2]: 2.5±0.3 fold | EC50 [3]: 5 µM | Neh2-luc fold activation [3]: 15±2 fold | Neh2-luc fold activation ([3]; listed as 3’-hydroxydaidzein): active | Iron complex Diss. Const [4]: 3.5 ± 0.4 µM | neuroprotection in glutathione depletion model [5]: protective | concentration at which neuroprotection begins [5]: 2.5 µM

O=c1c(O)c(-c2ccccc2)oc2ccccc12 [compound 1, 3-Hydroxyflavone]
fold induction at 10 µM ([1]; Homo sapiens, SH-SY5Y): 1.5 ± 0.2 | fold induction at 10 µM [2]: 1.5 ± 0.2 | Neh2-luc fold activation [3]: inactive | Neh2-luc fold activation ([3]; listed as 3-hydroxyflavone): completely inactive | Iron complex Diss. Const [4]: 2.0 ± 0.2 µM | Iron complex Diss. Const ([4]; listed as 3-Hydroxyflavone): ca. 2 µM | FC red Rate Const [6]: inactive

O=c1c(O)c(-c2ccccc2)oc2cccc(O)c12 [compound 7, 3,5-Dihydroxy-]
fold induction at 10 µM ([1]; Homo sapiens, SH-SY5Y): 1.3 ± 0.2 | fold induction at 10 µM [2]: 2 ± 0.2 | Neh2-luc fold activation [3]: Inactive | Iron complex Diss. Const [4]: 2.5 ± 0.3 µM | FC red Rate Const [6]: inactive

O=c1cc(-c2ccccc2)oc2cc(O)c(O)c(O)c12 [compound 17, Baicalein]
ODD-luc fold activation [1]: Inactive | fold induction at 10 µM [2]: 5 ± 0.6 | Neh2-luc fold activation [3]: Inactive | Iron complex Diss. Const [4]: 2.5 ± 0.3 µM | FC red Rate Const [6]: 25500 ± 3000 M⁻¹ s⁻¹ | EHOMO [7]: -8.99 eV | Ki (HIF PHD2): 7 µM

C[C@@](Cc1ccc(O)c(O)c1)(NN)C(=O)O [compound 31, N-Aminomethyldopa, reference compound]
ODD-luc fold activation [1]: Inactive | HRE-luc fold activation [2]: Inactive | EC50 ([3]; Homo sapiens, SH-SY5Y): 20 µM | Neh2-luc fold activation [3]: Inactive | Iron complex Diss. Const [4]: 2.5 ± 0.3 µM | EC50 [5]: > 20 µM

O=c1c(O)c(-c2ccc(O)cc2)oc2cc(O)cc(O)c12 [compound 9, Kaempferol]
ODD-luc fold activation [1]: Inactive | fold induction at 10 µM [2]: 1.5 ± 0.2 | EC50 ([3]; Homo sapiens, SH-SY5Y): 5 µM | fold induction at 10 µM ([3]; Homo sapiens, SH-SY5Y): 15 ± 2 | drop in Neh2-luc reporter activation with NAC ([3]; simultaneous addition of 0.5 mM NAC, results not shown): 2 fold | Iron complex Diss. Const [4]: 2.5 ± 0.3 µM | FC red Rate Const [6]: 369000 ± 42000 M⁻¹ s⁻¹ | EHOMO [7]: -8.74 eV

O=c1cc(-c2ccc(O)c(O)c2)oc2cc(O)cc(O)c12 [compound 18, Luteolin]
fold induction at 10 µM ([1]; Homo sapiens, SH-SY5Y): 2.5 ± 0.3 | fold induction at 10 µM [2]: 2 ± 0.25 | EC50 ([3]; Homo sapiens, SH-SY5Y): 2 µM | fold induction at 10 µM ([3]; Homo sapiens, SH-SY5Y): 5 ± 0.6 | Iron complex Diss. Const [4]: 3.5 ± 0.4 µM | FC red Rate Const [6]: 130000 ± 15000 M⁻¹ s⁻¹ | LOX inhibition [8]: equipotent as LOX inhibitors | concentration at which neuroprotection begins [5]: 1.2 µM | EHOMO [7]: -9.09 eV

O=c1cc(-c2ccccc2)oc2cccc(O)c12 [compound 14, 5-hydroxyflavone]
ODD-luc fold activation [1]: Inactive | HRE-luc fold activation [2]: Inactive | Neh2-luc fold activation [3]: Inactive | Iron complex Diss. Const [4]: Inactive | Iron complex Diss. Const ([4]; listed as 5-hydroxyflavone): does not bind iron in solution | EHOMO [7]: -9.12 eV

O=c1cc(-c2ccccc2)oc2cc(O)cc(O)c12 [compound 15, Chrysin]
ODD-luc fold activation [1]: Inactive | fold induction at 10 µM [2]: 1.2 ± 0.15 | Neh2-luc fold activation [3]: Inactive | Iron complex Diss. Const [4]: Inactive | EHOMO [7]: -9.25 eV

N[C@@H](Cc1ccc(O)c(O)c1)C(=O)O [compound 29, 3,4-Dihydroxy-L-phenylalanine, reference compound]
EC50 ([1]; Homo sapiens, SH-SY5Y): 15 µM | fold induction at 10 µM ([1]; Homo sapiens, SH-SY5Y): 2 ± 0.25 | fold induction at 10 µM [2]: 1.7 ± 0.2 | EC50 ([3]; Homo sapiens, SH-SY5Y): 20 µM | Neh2-luc fold activation [3]: Inactive | Iron complex Diss. Const [4]: 2.5 ± 0.3 µM | EC50 [5]: 6 µM

O=c1cc(-c2ccc(O)c(O)c2)oc2ccccc12 [compound 19, 3’,4’-dihydroxyflavone]
fold induction at 10 µM ([1]; Homo sapiens, SH-SY5Y): 2.5 ± 0.3 | fold induction at 10 µM [2]: 2 ± 0.25 | EC50 ([3]; Homo sapiens, SH-SY5Y): 2 µM | fold induction at 10 µM ([3]; Homo sapiens, SH-SY5Y): 15 ± 2 | Iron complex Diss. Const [4]: 2.5 ± 0.3 µM | Induction of VEGF mRNA [9]: mild inducers

O=c1c(O)c(-c2ccc(O)cc2)oc2ccccc12 [compound 3, 3,4'-Dihydroxy-]
ODD-luc fold activation [1]: Inactive | HRE-luc fold activation [2]: Inactive | Iron complex Diss. Const [4]: 2.5 ± 0.2 µM | FC red Rate Const [6]: Inactive

O=c1c(O)c(-c2cc(O)c(O)c(O)c2)oc2cc(O)cc(O)c12 [compound 13, Myricetin]
fold induction at 10 µM ([1]; Homo sapiens, SH-SY5Y): 1.3 ± 0.2 | fold induction at 10 µM [2]: 2 ± 0.2 | EC50 ([3]; Homo sapiens, SH-SY5Y): 2 µM | fold induction at 10 µM ([3]; Homo sapiens, SH-SY5Y): 25 ± 3 | Iron complex Diss. Const [4]: 2.0 ± 0.2 µM | EHOMO [7]: -8.80 eV

O=c1c(O)c(-c2ccccc2)oc2cc(O)ccc12 [compound 2, 3,7-Dihydroxy-]
Iron complex Diss. Const [4]: 2.5 ± 0.3 µM | FC red Rate Const [6]: inactive

O=c1c(O)c(-c2ccccc2)oc2cc(O)cc(O)c12 [compound 8, Galangin]
ODD-luc fold activation [1]: Inactive | fold induction at 10 µM [2]: 1.3 ± 0.2 | Neh2-luc fold activation [3]: Inactive | Iron complex Diss. Const [4]: 3.5 ± 0.4 µM | FC red Rate Const [6]: 48000 ± 6000 M⁻¹ s⁻¹ | EHOMO [7]: -8.90 eV
